Legend:
corn [1] = experiment: Test C postemergence; type: in vivo, Zea mays
In short: (§1)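 Greenhouse herbicide screen. Pre: seeded loam/sand, sprayed at planting. Post: 1–4 leaf plants (2–18 cm) in peat-based mix. Formulation: solvent mixture + surfactant, non-phytotoxic. Readout: visual % control vs untreated, 13–15 d; dash = not tested.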

corn [2] = experiment: Test A postemergence; type: in vivo, Zea mays
In short: (§2)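 Scoring: eye-based comparison with untreated controls, 0 for no effect through 100 for complete control, at about day 10. Treatments: directed soil spray preemergence; foliar spray postemergence on 2–10 cm plants at the one- to two-leaf stage. Medium: loam soil with sand.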

kochia = experiment: Test C postemergence; type: in vivo, Kochia scoparia
In short: as §1

large (Lg) crabgrass = experiment: Test A postemergence; type: in vivo, Digitaria sanguinalis
In short: as §2

pigweed [3] = experiment: Test A preemergence; type: in vivo, Amaranthus retroflexus
In short: as §2

pigweed [4] = experiment: Test A postemergence; type: in vivo, Amaranthus retroflexus
In short: as §2

giant foxtail [5] = experiment: Test A postemergence; type: in vivo, Setaria faberii
In short: as §2

morningglory = experiment: Test A postemergence; type: in vivo, Ipomoea spp.
In short: as §2

barnyardgrass = experiment: Test A preemergence; type: in vivo, Echinochloa crus-galli
In short: as §2

giant foxtail [6] = experiment: Test C postemergence; type: in vivo, Setaria faberii
In short: as §1

velvetleaf = experiment: Test A preemergence; type: in vivo, Abutilon theophrasti
In short: as §2

johnsongrass = experiment: Test C postemergence; type: in vivo, Sorghum halepense
In short: as §1

chickweed = experiment: Test C postemergence; type: in vivo, Stellaria media
In short: as §1

galium = experiment: Test C postemergence; type: in vivo, Galium aparine
In short: as §1

[7] = Postemergence, 31 g ai/ha, scale 0 to 100 (0 no effect, 100 complete control), 13 to 15 days
[8] = Postemergence, 62 g ai/ha, scale 0 to 100 (0 no effect, 100 complete control)
[9] = 125 g ai/ha, 0 to 100 scale where 0 is no effect and 100 is complete control
[10] = 500 g ai/ha, 0 to 100 scale, 0 no effect, 100 complete control
[11] = 500 g ai/ha, 0 to 100 scale, 0 no effect, 100 complete control, approx. 10 days

Fc1cnc(Oc2ccccc2-n2cc(Br)cn2)nc1 [Compound 10, 2-[2-(4-bromo-1H-pyrazol-1-yl)phenoxy]-5-fluoropyrimidine]
plant injury at 125 g/ha (corn [1]; Zea mays, post-emergence, 125 g ai/ha, postemergence, read-out: Plant response rating (0 to 100), Corn): 5%
plant injury at 250 g/ha (corn [1]; Zea mays, post-emergence, 250 g ai/ha, postemergence, read-out: Plant response rating (0 to 100), Corn): 20%
Corn plant response rating (crop injury, 0 = no effect, 100 = complete kill) at 31 g/ha (corn [1]; Zea mays, post-emergence, Postemergence, 31 g ai/ha, scale 0 to 100 (0 no effect, 100 complete control), 13 to 15 days): 5%
Corn plant response rating (crop injury, 0 = no effect, 100 = complete kill) at 62 g/ha (corn [1]; Zea mays, post-emergence, Postemergence, 62 g ai/ha, scale 0 to 100 (0 no effect, 100 complete control)): 5%
Corn plant response rating (crop injury, 0 = no effect, 100 = complete kill) at 125 g/ha (corn [2]; Zea mays, post-emergence, 240 h, 125 g ai/ha, 0 to 100 scale where 0 is no effect and 100 is complete control): 20%
plant injury at 500 g/ha (corn [2]; Zea mays, post-emergence, 240 h, 500 g ai/ha, 0 to 100 scale, 0 no effect, 100 complete control, read-out: Plant response rating Corn): 50%
pest or weed control at 125 g/ha (kochia; Bassia scoparia, post-emergence, 125 g ai/ha, postemergence, read-out: Plant response rating (0 to 100), Kochia): 95%
pest or weed control at 250 g/ha (kochia; Bassia scoparia, post-emergence, 250 g ai/ha, postemergence, read-out: Plant response rating (0 to 100), Kochia): 98%
pest or weed control at 31 g/ha (kochia; Bassia scoparia, post-emergence, Postemergence, 31 g ai/ha, scale 0 to 100 (0 no effect, 100 complete control), 13 to 15 days, read-out: Plant response rating, Kochia): 20%
pest or weed control at 62 g/ha (kochia; Bassia scoparia, post-emergence, Postemergence, 62 g ai/ha, scale 0 to 100 (0 no effect, 100 complete control), read-out: Plant response rating, Kochia): 40%
pest or weed control at 125 g/ha (large (Lg) crabgrass; Digitaria sanguinalis, post-emergence, 240 h, 125 g ai/ha, 0 to 100 scale where 0 is no effect and 100 is complete control, read-out: Plant response rating, Crabgrass, Large): 50%
pest or weed control at 500 g/ha (large (Lg) crabgrass; Digitaria sanguinalis, post-emergence, 240 h, 500 g ai/ha, 0 to 100 scale, 0 no effect, 100 complete control, read-out: Plant response rating Crabgrass, Large): 80%
pest or weed control at 125 g/ha (pigweed [3]; Amaranthus retroflexus, pre-emergence, 240 h, 125 g ai/ha, 0 to 100 scale where 0 is no effect and 100 is complete control, read-out: Pigweed plant response rating): 100%
pest or weed control at 500 g/ha (pigweed [3]; Amaranthus retroflexus, pre-emergence, 240 h, 500 g ai/ha, 0 to 100 scale, 0 no effect, 100 complete control, approx. 10 days, read-out: Pigweed plant response rating): 100%
pest or weed control at 125 g/ha (pigweed [4]; Amaranthus retroflexus, post-emergence, 125 g ai/ha, 0 to 100 scale where 0 is no effect and 100 is complete control, read-out: Plant response rating, Pigweed): 100%
pest or weed control at 500 g/ha (pigweed [4]; Amaranthus retroflexus, post-emergence, 240 h, 500 g ai/ha, 0 to 100 scale, 0 no effect, 100 complete control, read-out: Plant response rating Pigweed): 100%
pest or weed control at 125 g/ha (giant foxtail [5]; Setaria faberi, post-emergence, 240 h, 125 g ai/ha, 0 to 100 scale where 0 is no effect and 100 is complete control, read-out: Plant response rating, Foxtail, Giant): 50%
pest or weed control at 500 g/ha (giant foxtail [5]; Setaria faberi, post-emergence, 240 h, 500 g ai/ha, 0 to 100 scale, 0 no effect, 100 complete control, read-out: Plant response rating Foxtail, Giant): 90%
pest or weed control at 125 g/ha (morningglory; Ipomoea, post-emergence, 240 h, 125 g ai/ha, 0 to 100 scale where 0 is no effect and 100 is complete control, read-out: Plant response rating, Morningglory): 90%
pest or weed control at 500 g/ha (morningglory; Ipomoea, post-emergence, 240 h, 500 g ai/ha, 0 to 100 scale, 0 no effect, 100 complete control, read-out: Plant response rating Morningglory): 100%
pest or weed control at 125 g/ha (barnyardgrass; Echinochloa crus-galli, pre-emergence, 240 h, 125 g ai/ha, 0 to 100 scale where 0 is no effect and 100 is complete control, read-out: Barnyardgrass plant response rating): 60%
pest or weed control at 500 g/ha (barnyardgrass; Echinochloa crus-galli, pre-emergence, 240 h, 500 g ai/ha, 0 to 100 scale, 0 no effect, 100 complete control, approx. 10 days, read-out: Barnyardgrass plant response rating): 90%
pest or weed control at 125 g/ha (giant foxtail [6]; Setaria faberi, post-emergence, 125 g ai/ha, postemergence, read-out: Plant response rating (0 to 100), Foxtail, Giant): 5%
pest or weed control at 250 g/ha (giant foxtail [6]; Setaria faberi, post-emergence, 250 g ai/ha, postemergence, read-out: Plant response rating (0 to 100), Foxtail, Giant): 5%
pest or weed control at 31 g/ha (giant foxtail [6]; Setaria faberi, post-emergence, Postemergence, 31 g ai/ha, scale 0 to 100 (0 no effect, 100 complete control), 13 to 15 days, read-out: Plant response rating, Foxtail, Giant): 0%
pest or weed control at 62 g/ha (giant foxtail [6]; Setaria faberi, post-emergence, Postemergence, 62 g ai/ha, scale 0 to 100 (0 no effect, 100 complete control), read-out: Plant response rating, Foxtail, Giant): 0%
pest or weed control at 125 g/ha (velvetleaf; Abutilon theophrasti, pre-emergence, 240 h, 125 g ai/ha, 0 to 100 scale where 0 is no effect and 100 is complete control, read-out: Velvetleaf plant response rating): 100%
pest or weed control at 500 g/ha (velvetleaf; Abutilon theophrasti, pre-emergence, 240 h, 500 g ai/ha, 0 to 100 scale, 0 no effect, 100 complete control, approx. 10 days, read-out: Velvetleaf plant response rating): 100%
pest or weed control at 125 g/ha (johnsongrass; Sorghum halepense, post-emergence, 125 g ai/ha, postemergence, read-out: Plant response rating (0 to 100), Johnsongrass): 5%
pest or weed control at 250 g/ha (johnsongrass; Sorghum halepense, post-emergence, 250 g ai/ha, postemergence, read-out: Plant response rating (0 to 100), Johnsongrass): 10%
pest or weed control at 31 g/ha (johnsongrass; Sorghum halepense, post-emergence, Postemergence, 31 g ai/ha, scale 0 to 100 (0 no effect, 100 complete control), 13 to 15 days, read-out: Plant response rating, Johnsongrass): 5%
pest or weed control at 125 g/ha (chickweed; Stellaria media, post-emergence, 125 g ai/ha, postemergence, read-out: Plant response rating (0 to 100), Chickweed): 35%
pest or weed control at 250 g/ha (chickweed; Stellaria media, post-emergence, 250 g ai/ha, postemergence, read-out: Plant response rating (0 to 100), Chickweed): 98%
pest or weed control at 31 g/ha (chickweed; Stellaria media, post-emergence, Postemergence, 31 g ai/ha, scale 0 to 100 (0 no effect, 100 complete control), 13 to 15 days, read-out: Plant response rating, Chickweed): 5%
pest or weed control at 62 g/ha (chickweed; Stellaria media, post-emergence, Postemergence, 62 g ai/ha, scale 0 to 100 (0 no effect, 100 complete control), read-out: Plant response rating, Chickweed): 30%
pest or weed control at 125 g/ha (galium; Galium, post-emergence, 125 g ai/ha, postemergence, read-out: Plant response rating (0 to 100), Galium): 80%
pest or weed control at 250 g/ha (galium; Galium, post-emergence, 250 g ai/ha, postemergence, read-out: Plant response rating (0 to 100), Galium): 95%
pest or weed control at 31 g/ha (galium; Galium, post-emergence, Postemergence, 31 g ai/ha, scale 0 to 100 (0 no effect, 100 complete control), 13 to 15 days, read-out: Plant response rating, Galium): 65%
pest or weed control at 62 g/ha (galium; Galium, post-emergence, Postemergence, 62 g ai/ha, scale 0 to 100 (0 no effect, 100 complete control), read-out: Plant response rating, Galium): 80%

N#Cc1cccc(Oc2ncc(F)cn2)c1-n1cc(Br)cn1 [Compound 62]
Plant response rating (0 to 100), Corn (corn [1]; 125 g ai/ha, postemergence): 15
Plant response rating (0 to 100), Corn (corn [1]; 250 g ai/ha, postemergence): 20
Plant response rating, Corn (corn [1]; [7]): 5
Plant response rating, Corn (corn [1]; [8]): 15
Plant response rating, Corn (corn [2]; [9]): 70
Plant response rating, Corn (corn [2]; [10]): 90
Plant response rating (0 to 100), Kochia (kochia; 125 g ai/ha, postemergence): 90
Plant response rating (0 to 100), Kochia (kochia; 250 g ai/ha, postemergence): 95
Plant response rating, Kochia (kochia; [7]): 80
Plant response rating, Kochia (kochia; [8]): 90
Plant response rating, Crabgrass, Large (large (Lg) crabgrass; [9]): 90
Plant response rating, Crabgrass, Large (large (Lg) crabgrass; [10]): 100
Plant response rating, Pigweed (pigweed [3]; [9]): 100
Pigweed plant response rating (pigweed [3]; [11]): 100
Plant response rating, Pigweed (pigweed [4]; [9]): 100
Plant response rating, Pigweed (pigweed [4]; [10]): 100
Plant response rating, Foxtail, Giant (giant foxtail [5]; [9]): 90
Plant response rating, Foxtail, Giant (giant foxtail [5]; [10]): 100
Plant response rating, Morningglory (morningglory; [9]): 90
Plant response rating, Morningglory (morningglory; [10]): 100
Plant response rating, Barnyardgrass (barnyardgrass; [9]): 60
Barnyardgrass plant response rating (barnyardgrass; [11]): 100
Plant response rating (0 to 100), Foxtail, Giant (giant foxtail [6]; 125 g ai/ha, postemergence): 20
Plant response rating (0 to 100), Foxtail, Giant (giant foxtail [6]; 250 g ai/ha, postemergence): 25
Plant response rating, Foxtail, Giant (giant foxtail [6]; [7]): 5
Plant response rating, Foxtail, Giant (giant foxtail [6]; [8]): 10
Plant response rating, Velvetleaf (velvetleaf; [9]): 50
Velvetleaf plant response rating (velvetleaf; [11]): 100
Plant response rating (0 to 100), Johnsongrass (johnsongrass; 125 g ai/ha, postemergence): 10
Plant response rating (0 to 100), Johnsongrass (johnsongrass; 250 g ai/ha, postemergence): 15
Plant response rating, Johnsongrass (johnsongrass; [7]): 5
Plant response rating, Johnsongrass (johnsongrass; [8]): 5
Plant response rating (0 to 100), Chickweed (chickweed; 125 g ai/ha, postemergence): 75
Plant response rating (0 to 100), Chickweed (chickweed; 250 g ai/ha, postemergence): 90
Plant response rating, Chickweed (chickweed; [7]): 50
Plant response rating, Chickweed (chickweed; [8]): 50
Plant response rating (0 to 100), Galium (galium; 125 g ai/ha, postemergence): 80
Plant response rating (0 to 100), Galium (galium; 250 g ai/ha, postemergence): 95
Plant response rating, Galium (galium; [7]): 65
Plant response rating, Galium (galium; [8]): 65

Reference: patent publication US9695155B2, “Herbicidal substituted pyrimidinyloxy benzene compounds” (E. I. DU PONT DE NEMOURS AND COMPANY, priority 2013, dated 2017)
